According to US20260356957A1, “METHODS FOR TREATMENT OF NON-SMALL CELL LUNG CANCER (NSCLC)” (Janssen Biotech, Inc., priority 2023, published 2026):

Tested on: EGFR-mutated locally advanced or metastatic NSCLC
Assay: MARIPOSA Phase 3, time to symptomatic progression (TTSP)
Format: in vivo, human

C=CC(=O)Nc1cc(Nc2nccc(-c3cn(C)c4ccccc34)n2)c(OC)cc1N(C)CCN(C)C [Osimertinib]
Censored (TTSP) (Full Analysis Set): 202 (61.1%) (%)
Death without Symptomatic PD (Full Analysis Set): 49 (11.4%) (%)
Event (TTSP) (Full Analysis Set): 167 (38.9%) (%)
Symptomatic PD (Full Analysis Set): 118 (27.5%) (%)
TTSP 6-month event-free rate (95% CI) (Full Analysis Set): 0.90 (0.87, 0.93)
TTSP 12-month event-free rate (95% CI) (Full Analysis Set): 0.79 (0.74, 0.82)
TTSP 18-month event-free rate (95% CI) (Full Analysis Set): 0.67 (0.63, 0.72)
TTSP 24-month event-free rate (95% CI) (Full Analysis Set): 0.59 (0.53, 0.64)
TTSP 30-month event-free rate (95% CI) (Full Analysis Set): 0.49 (0.40, 0.58)
TTSP Median (95% CI) (NE = not estimable): 29.31 (29.31, NE) months
TTSP time to event, 75th percentile (95% CI) (NE = not estimable): NE (NE, NE)
